# Reference: article PMC10578352, “Identification of a Protein Arginine Methyltransferase 7 (PRMT7)/Protein Arginine Methyltransferase 9 (PRMT9) Inhibitor” (Journal of Medicinal Chemistry, 2023)
# Tests used:
# Format in all cases: biochemical
# [1] = target: T1, SET7/9/KMT7 (Homo sapiens, UniProt Q8WTS6); experiment: HotSpot KMT activity assay, SET7/9; conditions: 10-dose IC50 mode; read-out: ref. cmpd. IC50, SET7/9
# T1 construct: the human recombinant SET7/9 (residues 2–366, C-terminus); GST (N); His (C); purchased Reaction Biology Corporation
# T1 sequence (Q8WTS6 2-366): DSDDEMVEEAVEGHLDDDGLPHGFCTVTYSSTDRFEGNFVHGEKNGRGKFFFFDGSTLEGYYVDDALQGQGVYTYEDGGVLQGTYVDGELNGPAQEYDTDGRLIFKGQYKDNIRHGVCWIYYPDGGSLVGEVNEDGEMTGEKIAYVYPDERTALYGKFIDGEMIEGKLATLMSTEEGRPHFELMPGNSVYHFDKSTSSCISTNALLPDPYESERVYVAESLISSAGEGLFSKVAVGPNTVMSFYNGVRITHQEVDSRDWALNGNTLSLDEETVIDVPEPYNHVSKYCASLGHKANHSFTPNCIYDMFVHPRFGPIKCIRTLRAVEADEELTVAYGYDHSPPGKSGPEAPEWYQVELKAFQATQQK
# Description: (§1) ; MW = 35.4 kDa; Genbank Accession # NM_018489), or the human recombinant EZH2-containing five-member polycomb repressive complex 2 (including EZH2 residues 2–746, AEBP2 2–517, EED 2–441, RbAp48 2–425, SUZ12 2–739; all full-length; with N-terminal Flag-tag on EED and N-terminal His-tag on all others; MW = 333.8 kDa; Genbank Accession # NM_001203247, NM_001114176, NM_003797, NM_005610, NM_015355), or the human recombinant G9a (residues 913–1193, C-terminus; with an N-terminal His-tag; MW = 34.6 kDa; Genbank Accession # NM_006709.3), or the human recombinant MLL1 complex (including MLL1 residues 3745–3969, C-terminus, WDR5 22–334, C-terminus, RbBP5 1–538, C-terminus, ASH2L 2–534, C-terminus, DPY-30 1–99, C-terminus; N-terminal His-tag on all subunits; MW = 212.0 kDa; Genbank Accession # NM_005933, NM_017588, NM_005057, NM_001105214, NM_0325742), or the human recombinant SET7/9 (residues 2–366, C-terminus; with a N-terminal GST-tag and a C-terminal His-tag; MW = 68.5 kDa; Genbank Accession # NM_030648), or the human recombinant SMYD3 (residues 2–428, C-terminus; C-terminal His-tag; MW = 50.1 kDa; Genbank Accession # NM_001167740), or the human recombinant SUV39H2 (residues 46–410, C-terminus; N-terminal fusion protein with a C-terminal His-tag; MW = 98.8 kDa; GenBank Accession No. NM_001193424), or the human recombinant DOT1L (residues 1–416; N-terminal GST-tag; MW = 80.0 kDa; Genbank Accession # NM_032482) was added to a solution of the proper substrate (oligo nucleosomes for ASH1L, MLL1 complex, and DOT1L, final concentration 0.05 mg/mL; core histone for EZH2 complex and SET7/9, final concentration 0.05 mg/mL; histone H3 for SUV39H2, final concentration 5 μM; histone H3 1–21 for G9a, final concentration 2.5 μM) in freshly prepared reaction buffer (50 mM Tris-HCl (pH 8.5), 5 mM MgCl2, 50 mM NaCl, 1 mM DTT, 1 mM PMSF, 1% DMSO) and gently mixed. […] After incubation for 60 min at 30 °C, the reaction mixture was delivered to filter paper for detection (as assessed by scintillation). […] Values obtained for each compound are mean ± SD determined for two separate experiments.
# [2] = target: T2, MLL1/KMT2A (5 component complex) (Homo sapiens, UniProt Q03164); experiment: HotSpot KMT activity assay, MLL1
# T2 construct: MLL1 residues 3745–3969, C-terminus; His (N); purchased Reaction Biology Corporation
# Description: as §1
# [3] = target: T3, SMYD3/KMT3E (Homo sapiens, UniProt Q9H7B4); experiment: HotSpot KMT activity assay, SMYD3
# T3 construct: the human recombinant SMYD3 (residues 2–428, C-terminus); C-terminal His-tag; His (C); purchased Reaction Biology Corporation
# T3 sequence (Q9H7B4 2-428): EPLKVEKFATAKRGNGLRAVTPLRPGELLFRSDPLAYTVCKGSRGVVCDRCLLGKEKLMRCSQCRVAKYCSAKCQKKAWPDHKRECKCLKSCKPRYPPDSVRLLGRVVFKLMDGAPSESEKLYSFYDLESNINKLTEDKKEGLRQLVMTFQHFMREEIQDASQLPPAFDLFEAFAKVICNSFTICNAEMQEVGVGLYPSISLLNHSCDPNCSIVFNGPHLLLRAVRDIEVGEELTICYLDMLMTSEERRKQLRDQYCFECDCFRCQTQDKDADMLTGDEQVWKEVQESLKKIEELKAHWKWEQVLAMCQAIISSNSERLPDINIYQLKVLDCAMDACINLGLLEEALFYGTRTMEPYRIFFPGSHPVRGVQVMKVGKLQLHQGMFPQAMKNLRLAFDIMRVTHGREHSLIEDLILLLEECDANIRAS
# Description: as §1
# [4] = target: T4, SUV39H2/KMT1B (Homo sapiens, UniProt Q9H5I1); experiment: HotSpot KMT activity assay, SUV39H2; conditions: 10-dose IC50 mode; read-out: ref. cmpd. IC50, SUV39H2
# T4 construct: the human recombinant SUV39H2 (residues 46–410, C-terminus); His (C); purchased Reaction Biology Corporation
# T4 sequence (Q9H5I1 46-410): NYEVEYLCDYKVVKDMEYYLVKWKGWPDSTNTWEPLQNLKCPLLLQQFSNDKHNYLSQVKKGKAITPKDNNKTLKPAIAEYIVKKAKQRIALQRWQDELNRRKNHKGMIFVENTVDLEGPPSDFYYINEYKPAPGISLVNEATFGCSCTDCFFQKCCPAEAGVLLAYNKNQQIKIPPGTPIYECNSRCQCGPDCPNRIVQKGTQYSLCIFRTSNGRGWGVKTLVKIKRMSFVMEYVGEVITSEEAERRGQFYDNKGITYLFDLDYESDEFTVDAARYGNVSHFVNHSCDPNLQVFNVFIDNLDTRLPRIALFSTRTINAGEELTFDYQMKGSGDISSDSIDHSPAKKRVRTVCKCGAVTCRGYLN
# Description: as §1
structure (smiles),measurement,setting,value
"Nc1ncnc2c1ncn2[C@@H]1O[C@H](CSCC[C@H](N)C(=O)O)[C@@H](O)[C@H]1O [SAH, S-5′-adenosyl-L-homocysteine, reference compound]",IC50,[1],70.4 µM
same,IC50,[2],300 nM
same,IC50,[3],15.9 µM
same,IC50,[4],37.3 µM
